*1 amine or outer side, *2 acyl side, *3 side chain or, on linkers, in order; H or OH if unused. Where a SMILES comes first, the peptide text is derived from it. Bridges are numbered along the chain shown (N, C = ends). [ ]: non-standard residue; d: D form. The star is where a group is joined. ξ: configuration not given here. Phe(3-CF3) = N[C@@H](Cc1cccc(C(F)(F)F)c1)C(=O)O; Ala(morpholin-4-yl) = N[C@@H](CN1CCOCC1)C(=O)O; Phe(4-COOH) = N[C@@H](Cc1ccc(C(=O)O)cc1)C(=O)O; Bip = N[C@@H](Cc1ccc(-c2ccccc2)cc1)C(=O)O; Phe(3-Me) = Cc1cccc(C[C@H](N)C(=O)O)c1; γGlu = O=C(O)[C@H](CCC(=O)[*:2])N[*:1]; NH(CH2)12COOH = O=C(O)CCCCCCCCCCCCN*; Val(3-OH) = CC(C)(O)[C@H](N)C(=O)O; aIle = CC[C@@H](C)[C@H](N)C(=O)O; 4Pal = N[C@@H](Cc1ccncc1)C(=O)O; Cha = N[C@@H](CC1CCCCC1)C(=O)O; Cit = NC(=O)NCCC[C@H](N)C(=O)O; Ile(3ξ) = CCC(C)[C@H](N)C(=O)O; Thr(3ξ) = CC(O)[C@H](N)C(=O)O; NMeNle = CCCC[C@H](NC)C(=O)O; 12Ado = NCCCCCCCCCCCC(=O)O; dOrn = NCCC[C@@H](N)C(=O)O; Carboxymethyl = O=C(O)C*; NMeA = CN[C@@H](C)C(=O)O; Orn = NCCC[C@H](N)C(=O)O; dDap = NC[C@@H](N)C(=O)O; Aun = NCCCCCCCCCCC(=O)O; Dab = NCC[C@H](N)C(=O)O; Dap = NC[C@H](N)C(=O)O; AEEA = NCCOCCOCC(=O)O; X12 = CC(C)(F)C(=O)*

T1 sequence (Q15116 25-288): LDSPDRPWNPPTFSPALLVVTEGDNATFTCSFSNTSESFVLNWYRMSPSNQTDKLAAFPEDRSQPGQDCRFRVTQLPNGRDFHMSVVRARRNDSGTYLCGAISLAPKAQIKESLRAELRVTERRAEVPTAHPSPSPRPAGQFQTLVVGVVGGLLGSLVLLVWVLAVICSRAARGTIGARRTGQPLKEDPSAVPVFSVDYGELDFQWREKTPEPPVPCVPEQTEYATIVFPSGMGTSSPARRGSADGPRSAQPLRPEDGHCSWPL

One test addresses T1, PD-1/PD-L1 interaction (PE-labeled human PD-L1-Ig binding to Jurkat cell line over-expressing human PD-1) (Homo sapiens, UniProt Q15116).
T1 construct: expressed in transfected cells; host or cells: Jurkat
As to the kind of experiment: Jurkat-PD-1 Cell Binding High-Content Screening Assay (CBA). The following applies: Jurkat-hPD-1 cells, PE-labeled PD-L1-Ig 20 nM final; read-out: Jurkat HPD1 PDL1 IC50. The method in brief:
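In this imaging assay, cells in 10% FCS medium see compound for 2 h at 37 °C and then labeled ligand at 20 nM final for 1 h. Paraformaldehyde fixation, Hoechst 33342 staining and dPBS washes precede image capture.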
The term IC50 denotes the point on the concentration scale where inhibition reaches its midpoint. As for `CC(C)C[C@H]1NC(=O)[C@H](C)N(C)C(=O)[C@H](CCCNC(N)=O)NC(=O)[C@H](Cc2ccc(-c3ccccc3)cc2)NC(=O)[C@H](Cc2ccc(C(=O)O)cc2)NC(=O)[C@H](Cc2cccc(C(F)(F)F)c2)NC(=O)[C@H](CC(=O)O)NC(=O)[C@H](Cc2ccc(OCC(=O)O)cc2)NC(=O)[C@H](CN2CCOCC2)NC(=O)CSC[C@@H](C(=O)N[C@@H](CCN)C(=O)NCCCCCCCCCCCCC(=O)O)NC(=O)[C@H](CCC(=O)O)NC(=O)[C@H](C(C)C)NC(=O)[C@H](CC2CCCCC2)NC(=O)[C@H](CCN)NC1=O` [Example 1155] ({CH2CO}-[Ala(morpholin-4-yl)]Y(Carboxymethyl)D[Phe(3-CF3)][Phe(4-COOH)][Bip][Cit][NMeA][dL][Dab][Cha]VEC[Dab]-{NH(CH2)12COOH}; thioether N-14), the IC50 was determined as 0.0086 µM.

As for `Cc1cccc(C[C@@H]2NC(=O)[C@H](CC(=O)O)NC(=O)[C@H](Cc3ccc(OCC(=O)O)cc3)NC(=O)[C@H](CCCNC(=O)C(C)(C)F)NC(=O)CSC[C@@H](C(=O)N[C@@H](CCCN)C(=O)N[C@@H](CO)C(=O)NCCCCCCCCCCCC(=O)O)NC(=O)[C@H](C(C)O)NC(=O)[C@H](C(C)C)NC(=O)[C@H](CC3CCCCC3)NC(=O)[C@H](CCN)NC(=O)[C@@H](CC(C)C)NC(=O)[C@H](C)N(C)C(=O)[C@H](CCCNC(N)=O)NC(=O)[C@H](Cc3ccc(-c4ccccc4)cc3)NC(=O)[C@H](Cc3ccc(O)cc3)NC2=O)c1` (stereo partly drawn) [Example 2401] ({CH2CO}-[Orn](X12)Y(Carboxymethyl)D[Phe(3-Me)]Y[Bip][Cit][NMeA][dL][Dab][Cha]V[Thr(3ξ)]C[Orn]S[12Ado]-OH; thioether N-14), the concentration for half-maximal inhibition (IC50) worked out at 0.0944 µM.

On to `CCC(C)[C@@H]1NC(=O)[C@H](Cc2ccc(-c3ccccc3)cc2)NC(=O)[C@H](CC(C)C)NC(=O)[C@H](Cc2c[nH]c3ccccc23)NC(=O)[C@H](CC(=O)O)NC(=O)[C@H](Cc2ccc(C(=O)O)cc2)NC(=O)[C@H](Cc2ccc(OCC(=O)O)cc2)NC(=O)CSC[C@@H](C(=O)N[C@@H](CC(N)=O)C(=O)N[C@@H](CCC(=O)NCCCCCCCCCCC(=O)O)C(=O)O)NC(=O)[C@H](CO)NC(=O)[C@H](C(C)C)NC(=O)[C@H](CC2CCCCC2)NC(=O)[C@H](CCN)NC(=O)[C@@H](CC(C)C)NC(=O)[C@H](C)N(C)C1=O` (stereo partly drawn) [Example 2069] ({CH2CO}-Y(Carboxymethyl)[Phe(4-COOH)]DWL[Bip][Ile(3ξ)][NMeA][dL][Dab][Cha]VSCN[γGlu][Aun]-OH; thioether N-14), for which the IC50 was found to be 0.0245 µM.

As to `CCC(C)[C@@H]1NC(=O)[C@H](Cc2ccc(-c3ccccc3)cc2)NC(=O)[C@H](C(C)C)NC(=O)[C@H](Cc2c[nH]c3ccccc23)NC(=O)[C@H](CC(=O)O)NC(=O)[C@H](Cc2ccncc2)NC(=O)[C@H](Cc2ccc(OCC(=O)O)cc2)NC(=O)CSC[C@@H](C(=O)N[C@@H](CCCN)C(=O)NCCOCCOCC(=O)NCCCCCCCCCCC(=O)O)NC(=O)[C@H](C(C)O)NC(=O)[C@H](C(C)C)NC(=O)[C@H](CC2CCCCC2)NC(=O)[C@H](CCN)NC(=O)[C@@H](CC(C)C)NC(=O)[C@H](C)N(C)C1=O` (stereo partly drawn) [Example 2106] ({CH2CO}-Y(Carboxymethyl)[4Pal]DWV[Bip][Ile(3ξ)][NMeA][dL][Dab][Cha]V[Thr(3ξ)]C[Orn][AEEA][Aun]-OH; thioether N-14), the IC50 came to 0.008 µM.

With `CC(C)C[C@@H]1NC(=O)[C@H](Cc2c[nH]c3ccccc23)NC(=O)[C@H](CC(=O)O)NC(=O)[C@H](Cc2ccc(C(=O)O)cc2)NC(=O)[C@H](Cc2ccc(OCC(=O)O)cc2)NC(=O)CSC[C@@H](C(=O)N[C@@H](CCN)C(=O)NCCOCCOCC(=O)NCCCCCCCCCCC(=O)O)NC(=O)[C@H](CCCCN)NC(=O)[C@H](C(C)C)NC(=O)[C@H](CC2CCCCC2)NC(=O)[C@H](CCN)NC(=O)[C@@H](C)NC(=O)[C@H](C)N(C)C(=O)[C@H](C(C)C)NC(=O)[C@H](Cc2ccc(-c3ccccc3)cc2)NC1=O` [Example 2207] ({CH2CO}-Y(Carboxymethyl)[Phe(4-COOH)]DWL[Bip]V[NMeA][dA][Dab][Cha]VKC[Dab][AEEA][Aun]-OH; thioether N-14), the IC50 amounted to 0.0099 µM.

For `CCC(C)[C@@H]1NC(=O)[C@H](Cc2ccc(-c3ccccc3)cc2)NC(=O)[C@H](CC(C)C)NC(=O)[C@H](Cc2c[nH]c3ccccc23)NC(=O)[C@H](CC(=O)O)NC(=O)[C@H](Cc2ccc(O)cc2)NC(=O)[C@H](Cc2ccncc2)NC(=O)CSC[C@@H](C(=O)N[C@H](CCCN)C(=O)NCCOCCOCC(=O)NCCCCCCCCCCC(=O)O)NC(=O)[C@H](CO)NC(=O)[C@H](C(C)C)NC(=O)[C@H](CC2CCCCC2)NC(=O)[C@H](CCN)NC(=O)[C@@H](CC(C)C)NC(=O)[C@H](C)N(C)C1=O` (stereo partly drawn) [Example 2086] ({CH2CO}-[4Pal]YDWL[Bip][Ile(3ξ)][NMeA][dL][Dab][Cha]VSC[dOrn][AEEA][Aun]-OH; thioether N-14), the IC50 was 0.0185 µM.

In the case of `CCC(C)[C@@H]1NC(=O)[C@H](Cc2ccc(-c3ccccc3)cc2)NC(=O)[C@H](CC(C)C)NC(=O)[C@H](Cc2c[nH]c3ccccc23)NC(=O)[C@H](CC(=O)O)NC(=O)[C@H](Cc2ccc(O)cc2)NC(=O)[C@H](Cc2ccncc2)NC(=O)CSC[C@@H](C(=O)N[C@@H](CN)C(=O)NCCOCCOCC(=O)NCCCCCCCCCCC(=O)O)NC(=O)[C@H](CO)NC(=O)[C@H](C(C)C)NC(=O)[C@H](CC(C)C)NC(=O)[C@H](CC(N)=O)NC(=O)[C@@H](CC(C)C)NC(=O)[C@H](C)N(C)C1=O` (stereo partly drawn) [Example 2053] ({CH2CO}-[4Pal]YDWL[Bip][Ile(3ξ)][NMeA][dL]NLVSC[Dap][AEEA][Aun]-OH; thioether N-14), the IC50 worked out at 0.0662 µM.

With `CC[C@@H](C)[C@@H]1NC(=O)[C@H](Cc2ccc(-c3ccccc3)cc2)NC(=O)[C@H](C(C)C)NC(=O)[C@H](Cc2c[nH]c3ccccc23)NC(=O)[C@H](CC(=O)O)NC(=O)[C@H](Cc2ccc(OCC(=O)O)cc2)NC(=O)[C@H](Cc2ccncc2)NC(=O)CSC[C@@H](C(=O)N[C@H](CN)C(=O)NCCOCCOCC(=O)N[C@@H](CCC(=O)NCCOCCOCC(=O)N[C@@H](CCC(=O)NCCOCCOCC(=O)N[C@@H](CCCN)C(=O)NCCCCCCCCCCC(=O)O)C(=O)O)C(=O)O)NC(=O)[C@H](CO)NC(=O)[C@H](C(C)C)NC(=O)[C@H](CC2CCCCC2)NC(=O)[C@H](CC(N)=O)NC(=O)[C@@H](CC(C)C)NC(=O)[C@H](C)N(C)C1=O` [Example 2014] ({CH2CO}-[4Pal]Y(Carboxymethyl)DWV[Bip][aIle][NMeA][dL]N[Cha]VSC[dDap][AEEA][γGlu][AEEA][γGlu][AEEA][Orn][Aun]-OH; thioether N-14), the IC50 is 0.0427 µM.

The test is the same for the next values; noted with them: PE-labeled PD-L1-Ig 20 nM final, Jurkat-hPD-1 cells; read-out: Jurkat HPD1 PDL1 IC50.
With `CC(=O)NCCCC[C@@H]1NC(=O)[C@H](C(C)(C)O)NC(=O)[C@H](CC2CCCCC2)NC(=O)[C@H](CCN)NC(=O)[C@@H](CC(C)C)NC(=O)[C@H](C)N(C)C(=O)[C@H](Cc2ccc(C(=O)O)cc2)NC(=O)[C@H](Cc2ccc(-c3ccccc3)cc2)NC(=O)[C@H](Cc2ccc(C(=O)O)cc2)NC(=O)[C@H](Cc2cccc(C)c2)NC(=O)[C@H](CC(=O)O)NC(=O)[C@H](Cc2ccc(OCC(=O)O)cc2)NC(=O)[C@H](C(C)O)NC(=O)CSC[C@@H](C(=O)N[C@@H](CCN)C(=O)NCCOCCOCC(=O)N[C@@H](CCC(=O)NCCCCCCCCCCCCC(=O)O)C(=O)O)NC1=O` (mixture of isomers) [Example 2659], the IC50 amounted to 0.0114 µM.

For the compound `Cc1cccc(C[C@@H]2NC(=O)[C@H](CC(=O)O)NC(=O)[C@H](Cc3ccc(C(=O)O)cc3)NC(=O)[C@H](CCN)NC(=O)CSC[C@@H](C(=O)N[C@@H](CCN)C(=O)NCCOCCOCC(=O)NCCCCCCCCCCC(=O)O)NC(=O)[C@H](Cc3cnc[nH]3)NC(=O)[C@H](C(C)O)NC(=O)[C@H](CC3CCCCC3)NC(=O)[C@H](CCN)NC(=O)[C@@H](CC(C)C)NC(=O)[C@H](C)N(C)C(=O)[C@H](Cc3ccc(C(=O)O)cc3)NC(=O)[C@H](Cc3ccc(-c4ccccc4)cc3)NC(=O)[C@H](Cc3ccc(C(=O)O)cc3)NC2=O)c1` (stereo partly drawn) [Example 2550] ({CH2CO}-[Dab][Phe(4-COOH)]D[Phe(3-Me)][Phe(4-COOH)][Bip][Phe(4-COOH)][NMeA][dL][Dab][Cha][Thr(3ξ)]HC[Dab][AEEA][Aun]-OH; thioether N-14), the IC50 is 0.0028 µM.

For the compound `Cc1cccc(C[C@@H]2NC(=O)[C@H](CC(=O)O)NC(=O)[C@H](Cc3ccc(C(=O)O)cc3)NC(=O)[C@H](Cc3ccncc3)NC(=O)CSC[C@@H](C(=O)NCCOCCOCC(=O)NCCCCCCCCCCC(=O)O)NC(=O)[C@H](CO)NC(=O)[C@H](C(C)(C)O)NC(=O)[C@H](CC3CCCCC3)NC(=O)[C@H](CCN)NC(=O)[C@@H](CC(C)C)NC(=O)[C@H](C)N(C)C(=O)[C@H](Cc3ccc(OCC(=O)O)cc3)NC(=O)[C@H](Cc3ccc(-c4ccccc4)cc3)NC(=O)[C@H](Cc3ccc(OCC(=O)O)cc3)NC2=O)c1` [Example 2463] ({CH2CO}-[4Pal][Phe(4-COOH)]D[Phe(3-Me)]Y(Carboxymethyl)[Bip]Y(Carboxymethyl)[NMeA][dL][Dab][Cha][Val(3-OH)]SC[AEEA][Aun]-OH; thioether N-14), the IC50 amounted to 0.0693 µM.

As for `CCCC[C@H]1C(=O)N[C@@H](Cc2ccc(C(=O)O)cc2)C(=O)N[C@@H](CC(=O)O)C(=O)N[C@@H](Cc2cccc(C)c2)C(=O)N[C@@H](Cc2ccc(C(=O)O)cc2)C(=O)N[C@@H](Cc2ccc(-c3ccccc3)cc2)C(=O)N[C@@H](Cc2ccc(C(=O)O)cc2)C(=O)N(C)[C@@H](C)C(=O)N[C@H](CC(C)C)C(=O)N[C@@H](CCN)C(=O)N[C@@H](CC2CCCCC2)C(=O)N[C@@H](C(C)C)C(=O)N[C@@H](CCC(=O)O)C(=O)N[C@H](C(=O)N[C@@H](CCN)C(=O)NCCOCCOCC(=O)NCCCCCCCCCCC(=O)O)CSCC(=O)N1C` [Example 2543] ({CH2CO}-[NMeNle][Phe(4-COOH)]D[Phe(3-Me)][Phe(4-COOH)][Bip][Phe(4-COOH)][NMeA][dL][Dab][Cha]VEC[Dab][AEEA][Aun]-OH; thioether N-14), the half-inhibitory concentration (IC50) came to 0.032 µM.
